The text below walks through data of article PMC10946806, “Development of Bifunctional, Raman Active Diyne‐Girder Stapled α‐Helical Peptides” (Chemistry (Weinheim an Der Bergstrasse, Germany), 2023).

Positions of bridges follow the written chain, without caps; N, C: chain ends. Non-standard residues stand in square brackets, D forms with d. Residues, ends and D or L forms follow the SMILES beside them. *: point of attachment. FITC = O=C1OC2(c3ccc(O)cc3Oc3cc(O)ccc32)c2ccc(NC(=S)*)cc21; R8 = C=CCCCCCC[C@@](C)(N)C(=O)O; S5 = C=CCCC[C@](C)(N)C(=O)O; Nle = CCCC[C@H](N)C(=O)O; Ahx = NCCCCCC(=O)O

Assay in the first data set: not given
Details: not given
With `CCCC[C@@H]1NC(=O)[C@H](CCCNC(=N)N)NC(=O)[C@H](C)NC(=O)[C@H](Cc2ccc(O)cc2)NC(=O)[C@@H](NC(=O)[C@H](CCCCN)NC(=O)[C@H](C)NC(=O)CCCCCNC(=S)Nc2ccc3c(c2)C(=O)OC32c3ccc(O)cc3Oc3cc(O)ccc32)CCCCCC#CC#CCCCCC[C@@H](C(=O)N[C@@H](CC(C)C)C(=O)N[C@@H](CCCCN)C(=O)N[C@@H](CCC(=O)O)C(=O)N[C@H](C(=O)N[C@@H](C)C(=O)N[C@@H](CCCCN)C(N)=O)[C@@H](C)CC)NC(=O)[C@H](CCCNC(=N)N)NC(=O)CNC1=O`, the % peptide remaining after 4 h with chymotrypsin is above 92%.

With `CCCC[C@@H]1NC(=O)[C@H](CCCNC(=N)N)NC(=O)[C@H](C)NC(=O)[C@H](Cc2ccc(O)cc2)NC(=O)[C@@](C)(NC(=O)[C@H](CCCCN)NC(=O)[C@H](C)NC(=O)CCCCCNC(=S)Nc2ccc3c(c2)C(=O)OC32c3ccc(O)cc3Oc3cc(O)ccc32)CCCCCC#CC#CCCCCC[C@@](C)(C(=O)N[C@@H](CC(C)C)C(=O)N[C@@H](CCCCN)C(=O)N[C@@H](CCC(=O)O)C(=O)N[C@H](C(=O)N[C@@H](C)C(=O)N[C@@H](CCCCN)C(N)=O)[C@@H](C)CC)NC(=O)[C@H](CCCNC(=N)N)NC(=O)CNC1=O`, the % peptide remaining after 4 h with chymotrypsin is above 92%.

Take `CCCC[C@@H]1NC(=O)[C@H](CCCNC(=N)N)NC(=O)[C@H](C)NC(=O)[C@H](Cc2ccc(O)cc2)NC(=O)[C@](C)(NC(=O)[C@H](CCCCN)NC(=O)[C@H](C)NC(=O)CCCCCNC(=S)Nc2ccc3c(c2)C(=O)OC32c3ccc(O)cc3Oc3cc(O)ccc32)CCCCCC/C=C\CCC[C@@](C)(C(=O)N[C@@H](CC(C)C)C(=O)N[C@@H](CCCCN)C(=O)N[C@@H](CCC(=O)O)C(=O)N[C@H](C(=O)N[C@@H](C)C(=O)N[C@@H](CCCCN)C(N)=O)[C@@H](C)CC)NC(=O)[C@H](CCCNC(=N)N)NC(=O)CNC1=O` ({FITC-Ahx}-AK[R8]YAR[Nle]GR[S5]LKEIAK-NH2; staple (Z) 3-10): the % peptide remaining after 4 h with chymotrypsin was above 92%.

Molecule `CCCC[C@@H]1NC(=O)[C@H](CCCNC(=N)N)NC(=O)[C@H](C)NC(=O)[C@H](Cc2ccc(O)cc2)NC(=O)[C@](C)(NC(=O)[C@H](CCCCN)NC(=O)[C@H](C)NC(=O)CCCCCNC(=S)Nc2ccc3c(c2)C(=O)OC32c3ccc(O)cc3Oc3cc(O)ccc32)CCCCCC/C=C/CCC[C@@](C)(C(=O)N[C@@H](CC(C)C)C(=O)N[C@@H](CCCCN)C(=O)N[C@@H](CCC(=O)O)C(=O)N[C@H](C(=O)N[C@@H](C)C(=O)N[C@@H](CCCCN)C(N)=O)[C@@H](C)CC)NC(=O)[C@H](CCCNC(=N)N)NC(=O)CNC1=O` ({FITC-Ahx}-AK[R8]YAR[Nle]GR[S5]LKEIAK-NH2; staple (E) 3-10) had a % peptide remaining after 4 h with chymotrypsin above 92%.

The nature of a further data set: Circular dichroism (CD) spectroscopy, % helicity. The data set is classed as physicochemical. The settings on record: peptide 50 μM in PBS pH 7.4, 222 nm. Here is the method:
Circular dichroism (CD): CD spectra were obtained using a JASCO J-810 CD spectrometer. […] Percentage helicities can be calculated for α-helical peptides. […] […] Equation S1. MRE calculation. […] To 100 μL of peptide solution was added 100 11
In general terms: CD spectra are sensitive to the conformation of chiral molecules.
“FTU-Ahx-AKR8YAR(Nle)GRS8LKEIAK-NH2 (sidechain bridge or staple) [compound 35, diyne-girder stapled T-STAR peptide, C16 bridge, RS]”: the “percentage helicity (in words)” value was “high”.

“FTU-Ahx-AKS8YAR(Nle)GRR8LKEIAK-NH2 (sidechain bridge or staple) [compound 36, diyne-girder stapled T-STAR peptide, C16 bridge, SR]”: the “percentage helicity (in words)” value is given as “high”.
